Assay results taken from US8809368B2, “Compounds affecting gap junction activity” (Kansas State University Research Foundation, priority 2006, dated 2014).

Assays:
[1] = tested on: transformed human mammary epithelial cells (HMEC); experiment: Cell proliferation, HMEC; assay type: cell-based
Description: There was no effect seen on the cell proliferation in transformed human mammary epithelial cells (HMEC, data not shown).
MTT assay: This assay is done to measure cell proliferation and viability. Yellow MTT (3-(4,5-Dimethylthiazol-2-yl)-2,5-diphenyltetrazolium bromide, a tetrazole) is reduced to purple crystals, formazan in the mitochondria of living cells. A solubilization solution is added to dissolve the insoluble purple formazan product into a colored solution. The absorbance of this colored solution can be measured by a spectrophotometer. T47 D cells (20,000) were grown in 96-well plate and dosed with 10, 100, 200, 500 nM of PQ1 compound in 100 μl of complete media for 24 hours. MTT (20 μl) was added to the cells and purple formazan crystals were observed after 90 minutes. A solubilization solution (0.35 N HCl) was added to dissolve the formazan and the absorbance was measured at 595 nm wavelength with a background wavelength 690 nm by a spectrophotometer.

[2] = tested on: Cx32; experiment: Western blot of Cx32 in T47D cells; assay type: cell-based, human; conditions: 10, 100, 200 and 500 nM, 24 hours
Description: T47D cells were dosed with PQ1 for 24 hours. The Western blot analysis was performed as described in Materials and Methods. Whole cell extract was analyzed for Cx 43, Cx32, and Cx26. Experiment was performed at least three times.
Furthermore, whole cell extract of PQ1 treatment was analyzed for the changes in gap junctional proteins, connexins. Cells were treated with 10, 100, 200, and 500 nM PQ1 for 24 hours. Western blot analysis was performed against Cx26, Cx32, and Cx43 (FIG. 17). […] Anti-tubulin was used as a loading control.
Western Blot Analysis. Cells were grown in serum supplemented RPMI media until they were 90% confluent in 75 cm^2 flasks. Cells were kept in starving media containing phenol red-free DMEM with 5% charcoal dextran stripped serum, overnight. Cells were dosed with 0, 10, 100, 200 and 500 nM of PQ1 for 24 hours. Cells were washed three times with cold PBS and then were harvested using lysis buffer (20 mM Tris pH 7.5, 0.5 mM EDTA, 0.5 mM EGTA, 0.5% Triton X-100) with 1:1000 dilution of protease inhibitors (Sigma-Aldrich, Saint Louis, Mo.). Cell lysate was sonicated and centrifuged at 13,000 rpm for 30 minutes at 4° C. […] Western blots were detected by enhanced chemiluminescence detection reagents (Pierce, Rockford, Ill., USA).

[3] = tested on: T47D breast cancer cells; experiment: Xenograft tumor growth of T47D cells in Nu/Nu mice; assay type: in vivo
Description: Mice were inoculated with 17β-estradiol (1.7 mg/pellet) before the injection of 1×10^7 T47D cells subcutaneously into the inguinal region of mammary fat pad. Animals received treatment at 1 μM PQ1 or 10 μM tamoxifen. The results after 6 days of injection show a decrease in tumor growth of PQ1-treated animals compared to control or tamoxifen.
The anti-tumor effect of PQ1 was also observed in animal model. Nu/Nu mice were inoculated with estradiol-17β (1.7 mg/pellet) before the injection of 1×10^7 T47D breast cancer cells subcutaneously into inguinal region of mammary fat pad.
Xenograft Tumors of T47D cells in Nu/Nu Mice. Nu/Nu mice were ordered from The Jackson Laboratory. Mice were inoculated with estradiol-17β (1.7 mg/pellet) before the injection of 1×10^7 T47D breast cancer cells subcutaneously into inguinal region of mammary fat pad. Cell viability of T47D cells were performed prior to injection. The tumor size was measured in three dimensions with calipers every 2 days starting at Day 7. […] When tumors reached 30-50 mm^3, three animals were randomly assigned to each treatment group. Animals were injected with 1 μM of PQ1 or 10 μM of tamoxifen and a single injection of treatment was set for 7 days and daily measurement of tumor size was recorded.

[4] = tested on: caspase-3; experiment: CoCl2 chemical hypoxia in R28 cells, caspase-3 activation by Western blot; assay type: cell-based, rat
Description: (A) About 70% confluent retinal R28 cells were treated with 100, 200 and 500 μM CoCl2 for 24 h with or without the pre-treatment of PQ1 (10 μM, 40 min) in a cell culture chamber (5% CO2, room air, 37° C.). Caspase-3 activation was determined by Western blotting in whole cell homogenates (WCH). (B) HIF1α stabilization was measured in the nuclear extracts (NE) after treatment with 500 μM CoCl2 at different time intervals with or without the pretreatment of PQ1. […] Levels of Cx43 and phosphoCx43-Ser368 are measured in WCH. β-Actin is used as a loading control.
Approximately 70% confluent retinal R28 cells were pre-incubated with PQ1 (10 μM, 40 min), followed by CoCl2 treatments at 100, 200 and 500 μM for different time periods in a cell culture chamber (5% CO2, room air, 37° C.). Hypoxia induction was confirmed by testing the hypoxia-inducible factor 1-α (HIF1α) protein expression levels in nuclear extracts by Western blotting.
Western blot. Western blotting was performed as described previously. […]
Next, it was determined whether PQ1 inhibition of gap junctions could prevent retinal neurosensory R28 cells from apoptosis using a chemical (CoCl2)-induced ischemia system as our model. […]

[5] = tested on: MDA-MB-231; experiment: Gap junction intercellular communication, MDA-MB-231 cells; assay type: cell-based, human; conditions: Table 1

| Compound | cell proliferation [1] | Cx32 expression [2] | tumor size compared to control ([3]; Day 2, 1 μM PQ1, single injection) | decrease of tumor growth ([3]; Day 6 after one injection, 1 μM PQ1, compared to control) [%] | tumor growth compared to control or tamoxifen ([3]; after 6 days of injection, 1 μM PQ1) | CoCl2-induced activation of caspase-3 ([4]; PQ1 10 μM 40 min pre-incubation, then 500 μM CoCl2 24 h) | activation of caspase-3 ([4]; PQ1 alone) | effect on gap junction intercellular communication [5] |
| --- | --- | --- | --- | --- | --- | --- | --- | --- |
| COc1cc(NCCCN)c2nccc(C)c2c1Oc1cccc(C(F)(F)F)c1.O=C(O)CCC(=O)O [PQ1, 6-Methoxy-8-[(3-aminopropyl)amino]-4-methyl-5-(3-trifluoromethylphenyloxy) quinoline succinic acid] | no effect | no effect | decrease | 70 | decrease | blocked the activation of caspase-3 substantially | did not cause activation |  |
| COc1cc(N)c2nccc(C)c2c1Oc1cccc(C(F)(F)F)c1 [PQ3, 8-Amino-6-methoxy-4-methyl-5-(3-trifluoromethylphenyloxy)quinoline] |  |  |  |  |  |  |  | No effect |
